The values that follow come from patent US8158623B2, “Heptacyclic compounds and the pharmaceutical uses thereof for preventing and treating diabetes and metabolic syndrome” (Shanghai Institute of Materia Medica Chinese Academy of …, priority 2007, dated 2012).

Data set [1] relates to AMP-Activated Protein Kinase (AMPK). As to the kind of experiment: Phosphorylation of AMPK in HepG2 cell (Western blot). The format is cell-based, Human. As to conditions: HepG2, 50 uM, 5 minutes, P<0.01 or P<0.05. The essentials: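 HepG2 cells were serum-starved 6 h in MEM with 0.5% BSA, then treated with compound at 50 uM final (0.25% DMSO) for 5 min, with DMSO as control. Lysates (15 μg/lane) were immunoblotted for phospho-AMPK and phospho-ACC with ECL detection. Band grey levels, normalized to an internal standard, are expressed relative to the normal group set as 1.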
Background: A western blot detects proteins with antibodies after separation by electrophoresis.

For data set [2], the system named is ob/ob mice. As to the kind of experiment: Effect of F7 on glucose and lipid metabolic disorder, serum biochemical indicators. The format is in vivo. As to conditions: oral 50 mg/kg once daily for 3 weeks. As to the method: Genetic spontaneous diabetes ob/ob mice were purchased from Jackson (USA), and maintained in a SPF facility (temperature: 22-24° C., humidity: 45-80%, illumination: 150-300 Lx, 12/12-hour light/dark cycle). Fasting blood glucose was determined daily for 3 days continuously when the mice were 7 weeks old. The mice were grouped into the treatment group and the control group (8 animals per group) according to the results determined. The two groups were administered orally with compound F7 (50 mg/kg) and a solution of 0.1% Tween 80 respectively, once daily for 3 weeks. Another group of C57 mice was used as normal control. At the end of administration, blood samples were collected in each group, the serum was separated and serum biochemical indicators were detected.

Data set [3] concerns ob/ob mice. The experiment in a line: Effect of F7 on liver weight, liver triglyceride, ALT and AST. The format is in vivo. As to conditions: oral 50 mg/kg once daily for 3 weeks. The method, then:
Genetic spontaneous diabetes ob/ob mice were purchased from Jackson (USA), and maintained in a SPF facility (temperature: 22-24° C., humidity: 45-80%, illumination: 150-300 Lx, 12/12-hour light/dark cycle). When the mice were 7 weeks old, the ob/ob mice were grouped into the treatment group and the control group (9 animals per group) according to the fasting blood glucose. The two groups were administered orally with compound F7 (50 mg/kg) and a solution of 0.1% Tween 80 respectively, once daily for 3 weeks. After 3 weeks, the animals were sacrificed and the liver was excised and weighed.
The triglyceride level in the liver was measured.

SMILES strings stand for the structures. Entries after “also recorded” stand apart in the source; their conditions may differ.

`COc1cc(C(=O)O)c2c(c1C)OC(=O)c1c(C)cc(O)c(C=O)c1O2` [Compound F7, 4-Formyl-3-hydroxy-8-methoxy-1,9-dimethyl-11-oxo-11H-dibenzo[b,e][1,4]dioxepine-6-carboxylic acid]: the “Level of phosphorylation for AMPK protein versus DMSO control” value in data set [1] is “significant up-regulation; also recorded: increased significantly”. Moreover, in the data set with ob/ob mice [2], the “CHOL (total cholesterol), serum” value stood at 6.0 ± 0.8 mmol/L; the “FRU (fructosamine), serum” value was 225.0 ± 40.4 µmol/L; the “NFFA (unsaturated free fatty acid), serum” value is recorded as 1.15 ± 0.17 mmol/L; the “TG (triglycerides), serum” value stood at 72.1 ± 11.1 mg/dL. The UA (uric acid), serum in the data set with ob/ob mice [2] amounted to 316 ± 109 µM. Also, in the data set with ob/ob mice [3], the “Liver TG” value turned out to be 106.9 ± 35.6 µmol/g, the “Liver Weight” value turned out to be 2.67 ± 0.57 g and the “Weight of other organs or its ratio to body weight” value is reported as “no effect”. In the data set on ob/ob mice [3] (serum), this compound yielded an ALT of 161.5 ± 28.4 U/L and an AST of 197.3 ± 24.6 U/L.
